Assay [1] has as its system FGF-5-dependent cell proliferation (FR-BaF3 cells expressing FGFR-1c). Kind of assay: FR-Ba/F3 cell proliferation/viability assay in the presence of FGF-5 (CCK-8). In kind it is cell-based, murine. As to conditions: for FGF-5-inhibitory activity (in words): judged from FR-BaF3 result; for Suppression of FGF-5-dependent cell proliferation and viability: FR-BaF3 cells, in words (FIGS. 1(a)-1(h)); for FGF-5 Specificity IL-1/FGF-5: ratio of the IC50 with IL-3 to the IC50 with FGF-5, BR: less reproducible. The protocol: Ba/F3 is a murine interleukin-3 (IL-3)-dependent pro-B cell line. […] That is, compounds were tested for their ability to modulate proliferation of FR-Ba/F3 cells in the presence of recombinant human FGF-5 (rhFGF-5) prepared according to Maeda et al., Nishi Nihon Hifuka, 69(1): 81-86, 2007.
Briefly, a suitable plasmid expressing FGFR-1c was introduced into […] ER-Ba/F3 cells, and the cells were maintained in RPMI RPMI-1640 with 10% FBS and 1.3×10^−17 M of murine IL-3 (Sigma, St Louis, […].) containing antibiotic G418 sulfate (Promega, Medison, Wis.). The inventors compared proliferation of FR/BaF3 cells in culture medium containing IL3 or FGF-5 and a different concentration in the range from 0.005% (w/v) to 1.0% (w/v) of each test compound listed in Example 1. The FR-BaF3 cells were seeded at 5×10^4/mL cells per well in 96-well, micro-culture plates (Falcon) in RPMI-1640 culture medium containing 10% fetal bovine serum, 5 μg/mL heparin. Recombinant human FGF-5 (rhFGF-5; 1 μg/mL) was added to one group, and IL-3 (0.2 ng/mL) (Sigma) was added to another group. The test compounds were then introduced to the micro-culture plate wells. Total volume of media per well was 100 μl. Control groups lacking test compound were also prepared for each of the IL-3-supplemented and FGF-5-supplemented samples. The plates were then incubated at 37° C. in 5% CO2 for 3 days.
After 3 days, colorimetric assays were performed using a Cell Counting Kit-8 (CCK-8) (Wako) according to the manufacturer's instructions to measure cell proliferation or suppression thereof by the test compound at varying concentrations. Briefly, 10 μl (1:2 dilution) of the CCK-8 reagent was added to each micro-culture plate well after which time the plates were incubated at […] for 3 hours. Absorbance at 450 nm was then measured using a microplate reader. Cell viability and proliferation for the IL-3-supplemented and FGF-5-supplemented groups was calculated as a measure of the optical density (OD) of cells treated with a test compound relative to the OD of the respective untreated controls, excluding the OD of blank controls (media only). Dose response curves were plotted and the respective inhibitory concentrations (IC50) for the test compounds were determined.

The test system of assay [2] is Alkaline Phosphatase (ALP) activity in dermal papilla (DP) cells treated with FGF-5. The experiment in a line: Dermal papilla alkaline phosphatase (DP-ALP) cell assay. In kind it is cell-based, human. The conditions noted are these: for relative ALP activity of DP cells treated FGF-5: 0.005-0.5 mg/ml, GSK3 inhibitor IX + rhFGF-5 1 μg/mL, 3 days, absorbance 490 nm; for FGF-5-inhibitory activity ranked from most active to least active by DP-ALP assay: rank order. The protocol:
Dermal papilla cells were prepared according to the methods described in WO2013/105417, Briefly, hairs were pulled from the scalp of a healthy subject showing normal non-alopecia hair growth using tweezers. Hair follicles with dermal papilla were thus obtained at a rate of approximately one for every 100 hairs pulled. The hair follicles with dermal papilla were separated from the hair using tweezers and transferred into a saline for inspection under a microscope. Under a microscope, each dermal papilla was isolated from a respective hair follicle using tweezers and a scalpel. Approximately 2000 isolated dermal papilla cells were then transferred to a 35 mm cell culture dish together 1-2 ml of cell culture medium, after which time the cells were cultured at 37° C. to produce a primary cell culture of dermal papilla. The cell culture medium consisted of approximately 90% DMEM medium, 10% fetal bovine serum (final concentration: 10%), FGF2 (final, concentration: 10 ng/ml), and penicillin-streptornycin solution (final concentration: 1 μg/ml) for every 2 mL of medium. Cell culture conditions were maintained for more than 14 days until dermal papilla cells covered approximately 40% of the area of the 35 mm culture dish, at which time subcultures were performed. To prepare the subcultures, the cell culture medium was removed from the 35 mm culture dish and the adherent cells were washed once with 2 ml of saline (at room temperature). 1 ml Trypsin-EDTA solution (0.1% trypsin and 0.02% EDTA) was then added to the 35 mm culture dish and left to stand for 4 minutes at 37° C. Dissociated dermal papilla cells were then recovered from the 35 mm dish, and seeded to a new 100 mm dish, and cultured in media under the same conditions as for the primary cell culture described above.
When the dermal papilla cells covered approximately 70-80% of the area of each 100 mm culture dish, the sub-confluent cells were subcultured as before. The process was repeated until sufficient cells were obtained to screen compounds of interest.
Once sufficient DP cells were obtained, the cells were harvested to provide a cell suspension. To harvest the DP cells, the cell culture medium was removed from the culture dish, and the adherent cells were washed with saline at room temperature. Trypsin-EDTA solution was then added under conditions described supra to dissociate the cells from the cell culture dish. Approximately 5×10^5 of the dissociated cells were resuspended in 500 ml of assay medium containing 445 ml of DMEM medium, 50 ml of 10% fetal calf serum and 5 ml of antibiotic.
Aliquots of the cell suspension were transferred to the wells of cell culture dishes, and a single monoterpenoid listed in Example 1 e.g., (−)-4-terpinen-4-ol, (+)-4-terpinen-4-ol. (±)-4-terpinen-4-ol, α-terpineol, nonanal, linalyl acetate or piperitone, is added to each well at a concentration of 0.005 (mg/ml) or 0.01 (mg/ml) or 0.05 (mg/ml) or 0.1 (mg/ml) or 0.5 (mg/ml). Cell suspensions were transferred to wells of a further cell culture dish to which minoxidil was then added at a concentration of 0.005 (mg/ml) or 0.01 (mg/ml) or 0.05 (mg/ml) or 0.1 (mg/ml) or 0.5 (mg/ml). A Wnt/β-catenin pathway activation agent e.g., Wnt3a or GSK-3 Inhibitor IX, as added to each of the cell cultures to produce an “activated cell culture”. Control cell cultures containing the same monoterpenoid compound or minoxodil, but lacking the Wnt/β-cinenin pathway activation agent, were processed in parallel. These activated and control cell cultures were divided further into duplicate cell culture samples either lacking FGF-5 or to which recombinant human FGF-5 (rhFGF-5; 1 μg/mL)) was added.
The cell culture samples were each cultured at 37° C. for 3 days under atmosphere containing less than 5% CO2. […]

Entries after “also recorded” stand apart in the source; their conditions may differ.

Regarding `CC1=CCC(O)(C(C)C)CC1` (racemic) [(±)-4-Terpinen-4-ol, 1-Isopropyl-4-methyl-3-cyclohexen-1-ol], the “FGF-5-inhibitory activity (in words)” value in assay [1] is recorded as “potent FGF-5-inhibitory active substances”. Moreover, in assay [2], the “relative ALP activity of DP cells treated FGF-5” value (shortened to “relative ALP activity”) is reported as “increased relative ALP activity” and the “FGF-5-inhibitory activity ranked from most active to least active by DP-ALP assay” value (“FGF-5-inhibitory activity ranked” below) is reported as “Piperitone>(−)-terpinen-4-ol>(±)-Terpinen-4β-Terpineol> (+)-Terpinen-4-ol > Linalyl Acetate”.
For `CC1=CC[C@](O)(C(C)C)CC1` [(+)-4-Terpinen-4-ol, (1S)-1-Isopropyl-4-methyl-3-cyclohexen-1-ol], in assay [1], the “Suppression of FGF-5-dependent cell proliferation and viability” value (from here on “Suppression”) is “Suppression of FGF-5-dependent cell proliferation and viability was observed”; the “FGF-5-inhibitory activity (in words)” value is listed as “potent FGF-5-inhibitory active substances”; the “FGF-5 Specificity IL-1/FGF-5” value is given as 9.1>. In addition, in assay [2], the “relative ALP activity” value was “increased relative ALP activity” and the “FGF-5-inhibitory activity ranked” value was “Piperitone>(−)-terpinen-4-ol>(±)-Terpinen-4β-Terpineol> (+)-Terpinen-4-ol > Linalyl Acetate”.
On to `CC1=CC[C@@](O)(C(C)C)CC1` [(−)-4-Terpinen-4-ol, (R)-1-Isopropyl-4-methyl-3-cyclohexen-1-ol], for which, in assay [1], the “Suppression” value is “Suppression of FGF-5-dependent cell proliferation and viability was observed”; the “FGF-5-inhibitory activity (in words)” value is listed as “potent FGF-5-inhibitory active substances”; the “FGF-5 Specificity IL-1/FGF-5” value was 2>. Further, in assay [1] (listed as (−)-terpinen-4-ol), the “FGF-5-inhibitory activity (in words)” value is on record as “high FGF-5 inhibitory activity; also recorded: higher FGF-5 inhibitory activity than (+)-terpinen-4-ol”. In assay [2], the “relative ALP activity” value is “high alkaline phosphatase activity; also recorded: higher alkaline phosphatase activity in dermal papillae than a racemic mixture of terpinen-4-al or (+)-Terpinen-4-ol; also recorded: increased relative ALP activity” and the “FGF-5-inhibitory activity ranked” value is listed as “Piperitone>(−)-terpinen-4-ol>(±)-Terpinen-4β-Terpineol> (+)-Terpinen-4-ol > Linalyl Acetate”.
As to `CC(=O)OC/C=C(\C)CCC=C(C)C` [Geranyl acetate, (2E)-3,7-Dimethyl-2,6-octadien-1-yl acetate], in assay [1], the “Suppression” value is “Suppression of FGF-5-dependent cell proliferation and viability was observed”; the “FGF-5 Specificity IL-1/FGF-5” value is listed as 8 (BR).
Turning to `C=CC(C)(O)CCC=C(C)C` (stereo not drawn) [Linalool, 3,7-Dimethyl-1,6-octadien-3-ol], in assay [1], the “Suppression” value is “Suppression of FGF-5-dependent cell proliferation and viability was observed”; the “FGF-5 Specificity IL-1/FGF-5” value is recorded as 30> (BR).
As to `C=CC(C)(CCC=C(C)C)OC(C)=O` (stereo not drawn) [Linalyl acetate, 3,7-Dimethyl-1,6-octadien-3-yl acetate], in assay [1], the “Suppression” value is “Suppression of FGF-5-dependent cell proliferation and viability was observed”; the “FGF-5-inhibitory activity (in words)” value is listed as “potent FGF-5-inhibitory active substances”. Moreover, the “FGF-5-inhibitory activity ranked” value in assay [2] is “Piperitone>(−)-terpinen-4-ol>(±)-Terpinen-4β-Terpineol> (+)-Terpinen-4-ol > Linalyl Acetate”.
With `CCCCCCCCC=O` [Nonanal, reference compound], in assay [1], the “FGF-5-inhibitory activity (in words)” value is listed as “potent FGF-5-inhibitory active substances” and the “FGF-5 Specificity IL-1/FGF-5” value is on record as 9.
Regarding `C=C(C)C1CC=C(C)C(O)C1` (stereo not drawn) [l-Carveol, 2-Methyl-5-(1-methylethenyl)-2-cyclohexen-1-ol], in assay [1], the “Suppression” value was “Suppression of FGF-5-dependent cell proliferation and viability was observed”; the “FGF-5 Specificity IL-1/FGF-5” value is on record as 2.
As for `CC1=CCC(C(C)(C)O)CC1` (stereo not drawn) [α-Terpineol, 2-(4-Methyl-3-cyclohexen-1-yl)-2-propanol], in assay [1], the “Suppression” value is “Suppression of FGF-5-dependent cell proliferation and viability was observed”; the “FGF-5-inhibitory activity (in words)” value is reported as “potent FGF-5-inhibitory active substances”; the “FGF-5 Specificity IL-1/FGF-5” value was 5>. Besides, in assay [2], the “relative ALP activity” value is recorded as “increased relative ALP activity” and the “FGF-5-inhibitory activity ranked” value is listed as “Piperitone>(−)-terpinen-4-ol>(±)-Terpinen-4β-Terpineol> (+)-Terpinen-4-ol > Linalyl Acetate”.

The record behind these values is patent US20160374979A1, “Method of Treatment of Alopecia with Monoterpenoids” (CELLMID LIMITED, priority 2013, published 2016).
